Reference: BindingDB's records for doi:10.3109/14756360903179385 (University of Peshawar, 2010)

What follows are compounds tested against Urease (Canavalia ensiformis, UniProt P07374) (assay: Urease Inhibition Assay). Conditions: pH 6.8; 30 °C.
Method: Reaction mixtures comprising 25 μL of enzyme (jack bean urease) solution and 55 μL of buffer containing 100 mM urea were incubated with 5 μL of test compound (0.5 mM) at 30°C for 15 min in 96-well plates. Urease activity was determined by measuring the ammonia production using the indophenol method, as described by Weatherburn11. Briefly, 45 μL of each phenol reagent (1% (w/v) phenol and 0.005% (w/v) sodium nitroprussside) and 70 μL of alkali reagent (0.5% (w/v) NaOH and 0.1% active chloride, NaOCl) were added to each well. The increasing absorbanceat 630 nm was measured after 50 min, using a microplate reader (Molecular Devices, Sunnyvale, CA, USA). All reactions were performed in triplicate in a final volume of 200 μL. The results (change in absorbance per min) were processed using SoftMax Pro software (Molecular Devices). The entire assay was performed at pH 6.8.

Urease, sequence (P07374 whole entry): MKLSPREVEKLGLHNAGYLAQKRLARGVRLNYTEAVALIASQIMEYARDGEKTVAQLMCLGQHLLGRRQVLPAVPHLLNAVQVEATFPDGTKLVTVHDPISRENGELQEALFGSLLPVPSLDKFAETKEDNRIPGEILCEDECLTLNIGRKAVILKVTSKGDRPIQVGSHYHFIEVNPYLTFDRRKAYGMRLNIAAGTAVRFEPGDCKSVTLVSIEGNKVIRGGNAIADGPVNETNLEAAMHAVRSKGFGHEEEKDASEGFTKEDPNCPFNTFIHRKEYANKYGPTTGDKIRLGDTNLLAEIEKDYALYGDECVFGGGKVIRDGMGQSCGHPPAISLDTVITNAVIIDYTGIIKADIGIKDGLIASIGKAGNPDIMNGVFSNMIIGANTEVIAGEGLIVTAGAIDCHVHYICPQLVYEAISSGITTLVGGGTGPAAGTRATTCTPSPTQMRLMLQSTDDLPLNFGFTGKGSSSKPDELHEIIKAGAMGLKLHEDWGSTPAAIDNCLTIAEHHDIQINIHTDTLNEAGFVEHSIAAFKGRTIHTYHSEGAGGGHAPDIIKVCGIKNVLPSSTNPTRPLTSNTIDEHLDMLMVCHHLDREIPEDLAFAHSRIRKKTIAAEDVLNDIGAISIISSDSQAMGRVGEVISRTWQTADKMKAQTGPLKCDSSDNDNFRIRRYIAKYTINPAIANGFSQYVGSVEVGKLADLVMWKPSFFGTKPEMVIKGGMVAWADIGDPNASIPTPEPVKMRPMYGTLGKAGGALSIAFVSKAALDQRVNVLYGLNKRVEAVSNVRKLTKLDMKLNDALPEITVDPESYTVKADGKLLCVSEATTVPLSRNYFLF

Row | Structure (SMILES) | IC50 [µM]
1 | O=c1c2cc(O)ccc2oc2cc(O)cc(O)c12 [1,3,7-trihydroxy-9H-xanthen-9-one] | 138
2 | CCCCCCCCCCCCCCCCCCCCCCCCOC(=O)C=Cc1ccc(O)c(O)c1 [Tetracosyl 3-(3,4-dihydroxyphenyl) acrylate (2)] | 21
3 | O=c1c2cccc(O)c2oc2c(O)c(O)ccc12 [US9114126, MB5] | 37.9
